The test system of one data set is 293T cells. Put plainly: Cell viability, MTT assay. The class given is cell-based. Conditions: Homo sapiens, HEK-293T, 48 h, read-out: IC50 cell viability.
The target in data set [1] is S1 domain of SARS-CoV-2 spike protein (Severe acute respiratory syndrome coronavirus 2, UniProt P0DTC2). Put plainly: biochemical. The format is binding.
For data set [2] the following is noted: annotation, ref TDEC website; cited from earlier work.
In data set [3] the test system is lentivirus particles pseudotyped (Vpp) with SARS-CoV-2 Spike protein. The experiment in a line: organism not typed. The class given is cell-based. The conditions noted are these: for inhibition at 10 µM: HEK-293T, read-out: inhibition of SARS-CoV-2 viral infection efficacy.
For another data set, the system named is adenovirus. Conditions: 293 cells; cited from earlier work.
The next data set relates to measles virus. Conditions: Vero cells; cited from earlier work.
Data set [4] relates to interaction between viral spike protein and ACE2 protein. Conditions: cited from earlier work.

*1 amine or outer side, *2 acyl side, *3 side chain or, on linkers, in order; H or OH if unused. Where a SMILES comes first, the peptide text is derived from it. Bridges are numbered along the chain shown (N, C = ends). Roman numbers before positions name the chains, in order. [ ]: non-standard residue; d: D form. Actinocin(9to1) = Cc1c2oc3c(C)ccc(C(=O)[*:1])c3nc-2c(C(=O)[*:2])c(N)c1=O; NMeV = CN[C@H](C(=O)O)C(C)C; Sar = CNCC(=O)O

The source of these data is article PMC8443859 (Journal of Traditional and Complementary Medicine, 2021).

In general, IC50 refers to the concentration needed to halve the response being measured. As usually defined, the Kd is the free concentration of one partner at which half of the binding sites on the other are occupied at equilibrium, for simple one-to-one binding. Read a low Kd as a tighter complex. On to `C[C@@H]1CC[C@@]2(OC1)O[C@H]1C[C@H]3[C@@H]4CC=C5C[C@@H](O[C@@H]6O[C@H](CO)[C@@H](O[C@@H]7O[C@@H](C)[C@H](O)[C@@H](O)[C@H]7O)[C@H](O)[C@H]6O[C@@H]6O[C@@H](C)[C@H](O)[C@@H](O)[C@H]6O)CC[C@]5(C)[C@H]4CC[C@]3(C)[C@H]1[C@@H]2C` [Dioscin], for which the IC50 in the data set with 293T cells turned out to be 1.56 µM. For the same compound, in data set [1], the “c (c value)” value amounted to 117.3, the “n (reaction stoichiometry)” value stood at 5.488, the ΔG was -8.635 kcal/mol and the ΔS is 110.6 J/mol·K. For the same compound, the Kd in data set [1] was found to be 0.468 µM. The “Water solubility, Solubility category” value in data set [2] is recorded as “Moderate”. The “inhibition of SARS-CoV-2 viral infection efficacy” value in data set [3] (10 µM) is reported as “more than 80%”. Also, the “inhibition of adenovirus infection” value in the data set with adenovirus is “inhibit the initial stage of adenovirus infection”.
The inhibition is how much of the control response was suppressed. As to `O=c1cc(-c2ccc(O)c(-c3c(O)cc(O)c4c(=O)cc(-c5ccc(O)cc5)oc34)c2)oc2cc(O)cc(O)c12` [Amentoflavone], the IC50 in the data set with 293T cells is greater than 100 µM. In addition, in data set [1], the “-TΔS” value is 12.3 kcal/mol, the “c (c value)” value is given as 6.4, the “n (reaction stoichiometry)” value worked out at 2.731 and the ΔH was -19.63 kcal/mol. Moreover, the Kd in data set [1] was 4.27 µM. The inhibition at 10 µM in data set [3] was in the range of 50 to 90%.
Turning to `CC1=C(O)C(=O)C=C2C1=CC=C1[C@@]2(C)CC[C@@]2(C)[C@@H]3C[C@](C)(C(=O)O)CC[C@]3(C)CC[C@]12C` [Celastrol], the IC50 in the data set with 293T cells is 0.987 µM. Also, in data set [1], the “-TΔS” value was -47.59 kcal/mol, the “c (c value)” value was 8.2, the “n (reaction stoichiometry)” value is recorded as 1.409 and the ΔG is -7.868 kcal/mol. Moreover, in data set [1], the ΔH was 39.72 kcal/mol, the ΔS is given as 667.9 J/mol·K and the Kd is 1.71 µM. Also, the inhibition at 10 µM in data set [3] lay within 50 to 90%.
For `O=C1C(C2(C3(C4=Nc5ccccc5C4=O)Nc4ccccc4C3=O)Nc3ccccc3C2=O)=Nc2ccccc21` (stereo not shown) [Cephalinone D], in data set [1], the “-TΔS” value is -2.383 kcal/mol, the “c (c value)” value was determined as 0.8, the “n (reaction stoichiometry)” value was 0.333 and the ΔS turned out to be 33.45 J/mol·K.
As to `Cc1c2oc3c(C)ccc(C(=O)N[C@@H]4C(=O)N[C@H](C(C)C)C(=O)N5CCC[C@H]5C(=O)N(C)CC(=O)N(C)[C@@H](C(C)C)C(=O)O[C@@H]4C)c3nc-2c(C(=O)N[C@@H]2C(=O)N[C@H](C(C)C)C(=O)N3CCC[C@H]3C(=O)N(C)CC(=O)N(C)[C@@H](C(C)C)C(=O)O[C@@H]2C)c(N)c1=O` [Actinomycin D] (I: T[dV]P[Sar][NMeV] / II: T[dV]P[Sar][NMeV]; ester I:1-I:C, II:1-II:C; linker I:N-II:N via Actinocin(9to1)), the “inhibition of measles virus replication and RNA synthesis” value with measles virus was “inhibit measles virus replication and RNA synthesis”.
For the compound `CC1(C)[C@@H](O[C@H]2O[C@H](C(=O)O)[C@@H](O)[C@H](O)[C@H]2O[C@@H]2O[C@H](C(=O)O)[C@@H](O)[C@H](O)[C@H]2O)CC[C@]2(C)[C@H]3C(=O)C=C4[C@@H]5C[C@@](C)(C(=O)O)CC[C@]5(C)CC[C@@]4(C)[C@]3(C)CC[C@@H]12` [Glycyrrhizic acid], the “inhibitory activity against spike-ACE2 interaction” value in data set [4] was “inhibitory activity against the interaction between viral spike protein and ACE2 protein”.
As to `O=C1/C(=c2\c3ccccc3n3c(=O)c4ccccc4nc23)Nc2ccccc21` [Candidine], in data set [1], the “-TΔS” value was determined as 17.35 kcal/mol, the “n (reaction stoichiometry)” value was 0.115, the ΔG is -6.554 kcal/mol and the ΔH was -23.9 kcal/mol. For the same compound, in data set [1], the ΔS is −243.4 J/mol·K and binding was characterised by a dissociation constant (Kd) of 15.7 µM.
